Measurements taken from patent US11767330B2, “Citrate salt, pharmaceutical compositions, and methods of making and using the same” (Foghorn Therapeutics Inc., priority 2021, dated 2023).

Experiment: Forced degradation study of compound D1 (HPLC)
Assay type: physicochemical
Protocol: Sample stock solution was prepared by weighing 60.74 mg of compound D1 to a 100 mL volumetric flask, dissolving by ultrasonic in 50 mL of diluent 2, diluting to volume with diluent 2, and mixing well.
Unstressed sample solution was prepared by weighing 21.32 mg of compound D1 into a 100 mL volumetric flask, dissolving by ultrasonic in 50 mL of diluent 3, diluting to volume with diluent 3, and mixing well.
Sample solution for pH=4.0 solution stability was prepared as follows. 20.96 mg of compound D1 were weighed into a 100 mL volumetric flask, dissolved by ultrasonic in 50 mL of pH=4.0 50 mM sodium citrate buffer, diluted to volume with pH=4.0 50 mM sodium citrate buffer, and mixed well.
Sample solution for pH=5.0 solution stability was prepared as follows. 20.75 mg of compound D were weighed into a 100 mL volumetric flask, dissolved by ultrasonic in 50 mL of pH=5.0 50 mM sodium citrate buffer, diluted to volume with pH=5.0 50 mM sodium citrate buffer, and mixed well.
Sample solution for pH=7.0 solution stability was prepared as follows. 19.91 mg of compound D1 and 684.71 mg KH2PO4 were weighed into a 100 mL volumetric flask, dissolved by ultrasonic in 50 mL of diluent 1, transferred 29.1 mL of 0.1N NaOH into the same volumetric flask, diluted to volume with diluent 1, and mixed well.
Acid degradation (1N HCl at RT). 3 mL of the sample stock solution (see above) were transferred into an 8 mL vial, 3 mL of 2N HCl solution were added, and the resulting mixture was mixed well. Samples were prepared in quadruplicate and kept at RT. At the sampling point, 2 mL of the sample were transferred into an 8 mL vial and neutralized with 1 mL of 2N NaOH.
Samples were prepared in triplicate and kept at RT. […]
Oxidation degradation (3% H2O2 at RT). 3 mL of the sample stock solution (see above) were transferred into an 8 mL vial, 3 mL of 6% H2O2 solution were added, and the resulting mixture was mixed well. Samples were prepared in quadruplicate and kept at RT. At the sampling time point, 2 mL of the solution were transferred into an 8 mL vial, neutralized with 1 mL of diluent 3, and mixed well.
Photolysis degradation (solid). About 60 mg of compound D1 were placed onto a watch glass. Samples were prepared in triplicate and placed in a photo chamber (see Table 8). At the sampling time point, the sample was placed in a vial for analysis. About 20.0±2.0 mg of the sample into a 100 mL volumetric flask, dissolved by ultrasonic in 50 mL of diluent 3, diluted to volume with diluent 3, and mixed well.
Dark control sample: one sample was prepared as described above for this test, but the watch glass was covered with aluminum foil, and processed as described above.
Solid: about 60 mg of compound D1 were weighted into an 8 mL vial. Samples were prepared in triplicate and placed in an oven at 80° C. At the sampling time point, about 20.0±2.0 mg of the sample were weighed into a 100 mL volumetric flask, dissolved by ultrasonic in 50 mL of diluent 3, diluted to volume with diluent 3, and mixed well.
Solution: 3 mL of the sample stock solution (see above) were transferred into an 8 mL vial. Samples were prepared in triplicate and placed them in an oven at 80° C. At the sampling time point, 1 mL of the solution was transferred into an 8 mL vial, neutralized with 2 mL of diluent 3, and mixed well.
Humidity degradation (92% RH for solid). About 60 mg of compound D1 were transferred into a 20 mL vial (without cap). Samples were prepared in triplicate and placed in a desiccator at 92% RH. At the sampling time point, about 20.0±2.0 mg of the sample were transferred into a 100 mL volumetric flask, dissolved by ultrasonic in 50 mL of diluent 3, diluted to volume with diluent 3, and mixed well.
Solution Stability. Samples were prepared tested under the solution stability conditions noted in Table 8. The sampling time points were as noted in Table 8.

[1] = Acid Hydrolysis, 1N HCl RT, 0 h
[2] = Acid Hydrolysis, 1N HCl RT, 1 d
[3] = Acid Hydrolysis, 1N HCl RT, 2 d
[4] = Acid Hydrolysis, 1N HCl RT, 3 d
[5] = Base Hydrolysis, 1N NaOH RT, 0 h
[6] = Base Hydrolysis, 1N NaOH RT, 1 h
[7] = Photolysis, 1.10 W/m^2/25° C. for solid, 13 h
[8] = Photolysis, 1.10 W/m^2/25° C. for solid, 26 h
[9] = Photolysis, 1.10 W/m^2/25° C. for solid, 39 h
[10] = Solution Stability, pH = 4.0, 50 mM Sodium citrate buffer at RT, 0 h
[11] = Solution Stability, pH = 4.0, 50 mM Sodium citrate buffer at RT, 1 d
[12] = Solution Stability, pH = 4.0, 50 mM Sodium citrate buffer at RT, 3 d
[13] = Solution Stability, pH = 4.0, 50 mM Sodium citrate buffer at RT, 7 d
[14] = Solution Stability, pH = 5.0 50 mM Sodium citrate buffer at RT, 0 h
[15] = Solution Stability, pH = 5.0 50 mM Sodium citrate buffer at RT, 1 d
[16] = Solution Stability, pH = 5.0 50 mM Sodium citrate buffer at RT, 3 d
[17] = Solution Stability, pH = 5.0 50 mM Sodium citrate buffer at RT, 7 d
[18] = Solution Stability, pH = 7.0 Phosphate buffer at RT, 0 h
[19] = Solution Stability, pH = 7.0 Phosphate buffer at RT, 1 d
[20] = Solution Stability, pH = 7.0 Phosphate buffer at RT, 2 d

COc1cc(-c2cn(C)c(=O)c3cnc(N4CCC4)cc23)cc(OC)c1CN1CCC(CN2CCC3(CC2)CN(c2ccc4c(c2)C(=O)N(C2CCC(=O)NC2=O)C4)C3)CC1 (racemic) [Compound D1, 3-[6-(7-[[1-([4-[6-(azetidin-1-yl)-2-methyl-1-oxo-2,7-naphthyridin-4-yl]-2,6-dimethoxyphenyl]methyl)piperidin-4-yl]methyl]-2,7-diazaspiro[3.5]nonan-2-yl)-1-oxo-3H-isoindol-2-yl]piperidine-2,6-dione]
% Degradation [1]: 0.438% | % Mass Balance [1]: 108.2% | Area % [1]: 93.734% | % Degradation [2]: 4.781% | % Mass Balance [2]: 106.5% | Area % [2]: 89.391% | % Degradation [3]: 8.992% | % Mass Balance [3]: 107.6% | Area % [3]: 85.180% | % Degradation [4]: 12.125% | % Mass Balance [4]: 106.9% | Area % [4]: 82.047% | % Degradation [5]: 25.210% | % Mass Balance [5]: 104.0% | Area % [5]: 68.962% | % Degradation [6]: 76.841% | % Mass Balance [6]: 98.0% | Area % [6]: 17.331% | % Degradation (Humidity, 92% RH, 1 d): 1.245% | % Mass Balance (Humidity, 92% RH, 1 d): 98.8% | Area % (Humidity, 92% RH, 1 d): 92.927% | % Degradation (Humidity, 92% RH, 3 d): 2.091% | % Mass Balance (Humidity, 92% RH, 3 d): 99.5% | Area % (Humidity, 92% RH, 3 d): 92.081% | % Degradation (Humidity, 92% RH, 7 d): 3.282% | % Mass Balance (Humidity, 92% RH, 7 d): 99.8% | Area % (Humidity, 92% RH, 7 d): 90.890% | % Degradation (Oxidation, 3% H2O2 RT, 0 h): 16.184% | % Mass Balance (Oxidation, 3% H2O2 RT, 0 h): 106.8% | Area % (Oxidation, 3% H2O2 RT, 0 h): 77.988% | % Degradation (Oxidation, 3% H2O2 RT, 8 h): 60.417% | % Mass Balance (Oxidation, 3% H2O2 RT, 8 h): 105.2% | Area % (Oxidation, 3% H2O2 RT, 8 h): 33.755% | % Degradation [7]: 3.088% | % Mass Balance [7]: 101.0% | Area % [7]: 91.084% | % Degradation [8]: 3.256% | % Mass Balance [8]: 92.1% | Area % [8]: 90.916% | % Degradation [9]: 3.436% | % Mass Balance [9]: 105.7% | Area % [9]: 90.736% | % Degradation [10]: 0.656% | % Mass Balance [10]: 90.1% | Area % [10]: 93.516% | % Degradation [11]: 0.841% | % Mass Balance [11]: 93.7% | Area % [11]: 93.331% | % Degradation [12]: 1.299% | % Mass Balance [12]: 93.9% | Area % [12]: 92.873% | % Degradation [13]: 2.042% | % Mass Balance [13]: 93.7% | Area % [13]: 92.130% | % Degradation [14]: 1.674% | % Mass Balance [14]: 95.3% | Area % [14]: 92.498% | % Degradation [15]: 1.922% | % Mass Balance [15]: 103.1% | Area % [15]: 92.250% | % Degradation [16]: 2.133% | % Mass Balance [16]: 100.0% | Area % [16]: 92.039% | % Degradation [17]: 4.658% | % Mass Balance [17]: 100.8% | Area % [17]: 89.514% | % Degradation [18]: 1.534% | % Mass Balance [18]: 97.1% | Area % [18]: 92.638% | % Degradation [19]: 8.920% | % Mass Balance [19]: 102.6% | Area % [19]: 85.252% | % Degradation [20]: 15.170% | % Mass Balance [20]: 100.6% | Area % [20]: 79.002% | % Degradation (Thermal, 80° C., Solid, 1 d): 0.724% | % Mass Balance (Thermal, 80° C., Solid, 1 d): 105.7% | Area % (Thermal, 80° C., Solid, 1 d): 93.448% | % Degradation (Thermal, 80° C., Solid, 3 d): 0.978% | % Mass Balance (Thermal, 80° C., Solid, 3 d): 97.6% | Area % (Thermal, 80° C., Solid, 3 d): 93.194% | % Degradation (Thermal, 80° C., Solid, 7 d): 11.980% | % Mass Balance (Thermal, 80° C., Solid, 7 d): 92.7% | Area % (Thermal, 80° C., Solid, 7 d): 82.192% | % Degradation (Thermal, 80° C., Solution, 1 d): 0.119% | % Mass Balance (Thermal, 80° C., Solution, 1 d): 100.5% | Area % (Thermal, 80° C., Solution, 1 d): 94.053% | % Degradation (Thermal, 80° C., Solution, 7 d): 62.235% | % Mass Balance (Thermal, 80° C., Solution, 7 d): 104.2% | Area % (Thermal, 80° C., Solution, 7 d): 31.937% | Area % (Unstressed): 94.172%
